{"source": "patent US11607417B2", "about": "“Uses of celastrol in preventing and/or treating cholestatic liver disease and liver fibrosis” (KUNMING INSTITUTE OF BOTANY, THE CHINESE ACADEMY OF SCIENCES, priority 2017, dated 2023)", "key": {"[1]": {"test_system": "ANIT-induced cholestatic liver injury under SIRT1 inhibition", "experiment": "Effect of SIRT1 inhibition (EX527) on celastrol activity in ANIT model (Example 3)", "type": "in vivo, C57BL/6 mice", "protocol": "A total of 24 male C57BL/6 mice were divided into four groups: blank group (n=6); model group (n=6); treatment group (n=6); and EX527 group (n=6).\nCelastrol was dissolved in a solvent to obtain a celastrol solution at a concentration of 2 mg/mL, wherein the solvent consisted of 1% DMSO, 2% Tween 80, and 97% water (v:v:v). For intragastrical administration, the dosage of celastrol was 10 mg/kg·d. ANIT was dissolved in corn oil to obtain a corn oil solution of ANIT at a concentration of 15 mg/mL, and the dosage of ANIT for intragastrical administration was 75 mg/kg. EX527 was dissolved in corn oil to obtain a corn oil solution of EX527 at a concentration of 2 mg/mL, and the dosage of EX527 for intraperitoneal injection was 10 mg/kg·d.\n(§1) The EX527 group was simultaneously administrated with the celastrol solution and the EX527 corn oil solution for 5 consecutive days. The treatment group was administrated with the celastrol solution and an equal dosage of corn oil for 5 consecutive days. At the same time, the blank group and the model group were administrated with equal dosages of solvent (1% DMSO, 2% Tween 80 and 97% water (v:v:v)) and corn oil, and the solvent was administrated for 5 consecutive days.\nOn the 3rd day of administration, ANIT model was established. 4 Hours after administration, the mice in the model group, the treatment group and the EX527 group were respectively intraperitoneally injected with the ANIT corn oil solution at a dosage of 75 mg/kg for single administration to induce cholestatic liver injury, and the blank group was fed with an equal dosage of corn oil. After the model was established on the 3rd day of administration, the treatment group was continuously administrated with celastrol, the EX527 group was continuously administrated with celastrol and EX527, and the blank group and the model group were continuously administrated with the same dosage of solvent. 48 Hours after administration with ANIT, the mice were sacrificed by CO2 anesthesia, and mouse liver samples and plasma samples were taken. The eyeballs of the mice were taken for blood collection. The plasma samples were placed on ice for 1-2 hours, centrifuged at 4000 g for 5 minutes at 4° C., and the supernatants of the plasma samples were taken to determine plasma biochemical indicators, the levels of ALT, AST and ALP.\nAt the same time, plasma samples were prepared: 10 μL of plasma sample was taken, mixed well with 190 μL of 67% acetonitrile (containing 5 μM internal standard chlorpropamide), centrifuged at 18000 g for 20 minutes at 4° C., and the supernatant was taken for sample injection. The liquid chromatography conditions were as follows: the injection volume was 5 μL; the temperature of column was 45° C.; the flow rate of mobile phase was 0.3 mL/min; the gradient elution was that acetonitrile concentration changed from 2% to 98% during 16 minutes of operation, wherein the mobile phase (water/acetonitrile solution) contained 0.01% formic acid. The elution procedure was as follows: during 0-12th minute, the acetonitrile concentration changed from 2% to 98% at a constant rate; during 12-14th minute, the acetonitrile concentration was maintained at 98%; during 14-14.1th minute, the acetonitrile concentration changed from 98% to 2%; during 14.1-16th minute, the acetonitrile concentration was maintained at 2%. Mass spectrometry conditions were as follows: the temperature of dry gas was 350° C., the pressure of nebulizer was 35 psi, and the voltage of capillary was 3.5 kV.\nPart of the collected mouse liver tissue was fixed overnight in formalin and tissue sections were stained with hematoxylin and eosin (H&E)."}, "[2]": {"test_system": "TAA-induced cholestatic liver injury under SIRT1 inhibition", "experiment": "Effect of SIRT1 inhibition (EX527) on celastrol activity in TAA model (Example 4)", "type": "in vivo, C57BL/6 mice", "conditions": "TAA model", "protocol": "A total of 24 male C57BL/6 mice were divided into four groups: blank group (n=6);\nmodel group (n=6); treatment group (n=6); EX527 group (n=6).\nCelastrol was dissolved in a solvent to obtain a solution of celastrol at a concentration of 2 mg/mL, wherein the solvent consisted of 1% DMSO, 2% Tween, and 97% water (v:v:v). For intragastrical administration, the dosage of celastrol was 10 mg/kg·d. TAA was dissolved in 0.9% NaCl solution to prepare a NaCl solution of TAA at a concentration of 60 mg/mL, and the dosage of TAA for intraperitoneal administration was 300 mg/kg. EX527 was dissolved in corn oil to prepare a corn oil solution of EX527 at a concentration of 2 mg/mL, and the dosage of EX527 for intraperitoneal administration was 10 mg/kg. d.\nas §1, with “simultaneously administered” for “simultaneously administrated”, “for 4” for “for 5”\nOn the 4th day, the establishment of TAA model was performed. 1 Hour after administration, the mice in the model group, the treatment group and the EX527 group were intraperitoneally injected with TAA at a dosage of 300 mg/kg to induce cholestatic liver injury. 24 Hours after administration with TAA, the mice were sacrificed by CO2 anesthesia, and plasma samples and liver samples were collected. The eyeballs of the mice were taken for blood collection. The plasma samples were placed on ice for 1-2 hours, centrifuged at 4000 g for 5 minutes at 4° C., and the supernatants of plasma samples were taken to determine the plasma biochemical indicators, the levels of ALT, AST, and ALP.\nAt the same time, plasma samples were prepared: 10 μL of plasma sample was mixed with 190 μL of 67% acetonitrile (containing 5 μM internal standard chlorpropamide), centrifuged at 18000 g for 20 minutes at 4° C., and the supernatant was taken for sample injection. The liquid chromatography conditions were as follows: the volume of injection was 5 μL; the temperature of column was 45° C.; the flow rate of mobile phase was 0.3 mL/min; the gradient elution was that acetonitrile concentration changed from 2% to 98% during 16 minutes of operation, wherein the mobile phase (water/acetonitrile solution) contained 0.01% formic acid. The elution procedure was as follows: during 0-12th minute, the acetonitrile concentration changed from 2% to 98% at a constant rate; during 12-14th minute, the acetonitrile concentration was maintained at 98%; during 14-14.1th minute, the acetonitrile concentration changed from 98% to 2%; during 14.1-16th minute, the acetonitrile concentration was maintained at 2%. Mass spectrometry conditions were as follows: the temperature of dry gas was 350° C., the pressure of nebulizer was 35 psi, and the voltage of capillary was 3.5 kV.\nPart of the collected mouse liver tissue was fixed overnight in formalin, and tissue sections were stained with hematoxylin and eosin (H&E)."}, "[3]": {"conditions": "EX527 group: celastrol 10 mg/kg·d + EX527 10 mg/kg·d i.p., P<0.05, FIG. 3E"}, "[4]": {"conditions": "EX527 group: celastrol 10 mg/kg·d + EX527 10 mg/kg·d i.p., P<0.001, FIG. 4E"}}, "data": [{"smiles": "NC(=O)C1CCCc2c1[nH]c1ccc(Cl)cc21", "note": "(centres unmarked) [EX527, reference compound]", "values": [{"measurement": "Levels of bile acids in plasma vs treatment group", "setting": "[1]; CA, TβMCA/TαMCA and THDCA/TUDCA, EX527 group: celastrol + EX527 10 mg/kg·d i.p., P<0.05, FIG. 3F", "value": "significantly higher"}, {"measurement": "H&E staining of mouse liver tissue", "setting": "[1]; EX527 group: celastrol 10 mg/kg·d + EX527 10 mg/kg·d i.p., FIG. 3D", "value": "a severe inflammatory infiltration and a periportal hemorrhage also occurred"}, {"measurement": "ALT level in plasma vs treatment group", "setting": "[1]; [3]", "value": "significantly higher"}, {"measurement": "AST level in plasma vs treatment group", "setting": "[1]; [3]", "value": "significantly higher"}, {"measurement": "Levels of bile acids in plasma vs treatment group", "setting": "[2]; DCA, TβMCA/TαMCA, TCA and TDCA, EX527 group: celastrol + EX527 10 mg/kg·d i.p., P<0.05, FIG. 4F", "value": "significantly higher"}, {"measurement": "H&E staining of mouse liver tissue", "setting": "[2]; EX527 group: celastrol 10 mg/kg·d + EX527 10 mg/kg·d i.p., FIG. 4D", "value": "a severe necrosis of liver cells also occurred"}, {"measurement": "ALT level in plasma vs treatment group", "setting": "[2]; [4]", "value": "significantly higher"}, {"measurement": "AST level in plasma vs treatment group", "setting": "[2]; [4]", "value": "significantly higher"}]}]}
